Measured values taken from US9060961B2, “Molecules and methods for treatment and detection of cancer” (UNIVERSITY OF WASHINGTON, priority 2006, dated 2015).

Tested on: T lymphocytes in peripheral blood mononuclear cells
Assay: IFN-gamma ELISPOT of human T cells with IGF1R peptides
Format: cell-based
Conditions: for Immunogenicity Cancer: responders / cancer patients tested; for Immunogenicity Volunteer: responders / volunteer donors tested
Procedure: A scoring system based on internet available epitope prediction algorithms was developed to predict the peptides derived from IGF1R that have optimal binding affinity and promiscuity against multiple MHC class II molecules. […] After stimulating human T cells with the peptides, IFN-gamma secretion was determined via ELISPOT analysis. Five of the most immunogenic peptides were selected for in vivo evaluation in neu-transgenic mice to assess the potential of clinical efficacy.

Sequence | Immunogenicity Cancer | Immunogenicity Volunteer
SHALVSLSFLKNLRL [p 393-407] | 2/10 | 2/5
LVIMLYVFHRKRNNS [p 951-965] | 3/10 | 
GMAYLNANKFVHRDL [p 1122-1136] | 1/10 | 
WSFGVVLWEIATLAE [p 1196-1210] | 2/10 | 1/5
SKMIQMAGEIADGMA [p 1110-1124] | 1/10 | 
YSFYVLDNQNLQQLW [p 418-432] | 1/10 | 
ASNFVFARTMPAEGA [p 817-831] | 1/10 | 
LIIALPVAVLLIVGG [p 936-950] | 4/10 | 1/5
DYRSYRFPKLTVITE [p 69-83] |  | 1/5
IRGWKLFYNYALVIF [p 106-120] | 3/10 | 2/5
IDIRNDYQQLKRLEN [p 37-5] | 1/10 | 
VIEGYLHILLISKAE [p 54-68] | 2/10 | 
GVLVLRASFDERQPY [p 1332-1346] | 2/10 | 
DERQPYAHMNGGRKN [p 1341-1355] | 1/10 | 
TQYAVYVKAVTLTMV [p 575-589] | 1/10 | 1/5
